# Experimental data as given in ChEMBL document CHEMBL1134025, “Thiosugars. Part 9: synthesis and biological evaluation of some 4'-thio-L-arabino nucleoside analogues” (2001).
# Activity calls are given as the source filed them. The rule behind the calls is not given here.
# What was measured:
# Coxsackievirus B4 [1] = assay: Cytotoxicity was evaluated against Coxsackie B4 virus at 200-400 uM; IA=inactive; type: functional, organism-based
# Human betaherpesvirus 5 [2] = assay: Cytotoxicity was evaluated against HCMV at 200-400 uM; IA=inactive; type: functional, organism-based
# [3] = system: Human immunodeficiency virus 1; assay: Cytotoxicity was evaluated against HIV-1 at 200-400 uM; IA=inactive; type: functional, organism-based
# Human alphaherpesvirus 2 [4] = assay: Cytotoxicity was evaluated against HSV-2 at 200-400 uM; IA=inactive; type: functional, organism-based
# [5] = system: Human immunodeficiency virus 2; assay: Cytotoxicity was evaluated against HIV-2 at 200-400 uM; IA=inactive; type: functional, organism-based
# Human alphaherpesvirus 1 [6] = assay: Cytotoxicity was evaluated against HSV-1 at 200-400 uM; IA=inactive; type: functional, organism-based
# Human respirovirus 3 [7] = assay: Cytotoxicity was evaluated against Parainfluenza-3 virus at 200-400 uM; IA=inactive; type: functional, organism-based
# Punta Toro virus [8] = assay: Cytotoxicity was evaluated against Punta Toro virus at 200-400 uM; IA=inactive; type: functional, organism-based
# [9] = system: Mammalian orthoreovirus 1; assay: Cytotoxicity was evaluated against Reo virus-1 at 200-400 uM; IA=inactive; type: functional, organism-based; settings: reo virus type 1
# [10] = system: Respiratory syncytial virus; assay: Cytotoxicity was evaluated against Respiratory syncytial virus at 200-400 uM; IA=inactive; type: functional, organism-based
# Sindbis virus [11] = assay: Cytotoxicity was evaluated against Sindbis virus at 200-400 uM; IA=inactive; type: functional, organism-based
# Human alphaherpesvirus 3 [12] = assay: Cytotoxicity was evaluated against VZV at 200-400 uM; IA=inactive; type: functional, organism-based
# [13] = system: Vesicular stomatitis virus
# Vaccinia virus = settings: Orthopoxvirus vaccinia
# Coxsackievirus B4 [14] = assay: Minimum inhibitory concentration required to reduce Coxsackie B4 virus induced cytopathogenicity by 50%; type: functional; settings: Enterovirus B
# [15] = system: Human immunodeficiency virus 1; assay: Minimum inhibitory concentration required to reduce HIV-1 induced cytopathogenicity by 50%; type: functional
# Human betaherpesvirus 5 [16] = assay: Minimum inhibitory concentration required to reduce HCMV induced cytopathogenicity by 50%; type: functional
# Human alphaherpesvirus 1 [17] = assay: Minimum inhibitory concentration required to reduce HSV-1 induced cytopathogenicity by 50%; type: functional
# Human alphaherpesvirus 2 [18] = assay: Minimum inhibitory concentration required to reduce HSV-2 induced cytopathogenicity by 50%; type: functional
# Human respirovirus 3 [19] = assay: Minimum inhibitory concentration required to reduce Parainfluenza-3 virus induced cytopathogenicity by 50%; type: functional
# Punta Toro virus [20] = assay: Minimum inhibitory concentration required to reduce Punta Toro virus induced cytopathogenicity by 50%; type: functional
# [21] = system: Mammalian orthoreovirus 1; assay: Minimum inhibitory concentration required to reduce Reo virus-1 induced cytopathogenicity by 50%; type: functional, reo virus type 1
# [22] = system: Respiratory syncytial virus; assay: Minimum inhibitory concentration required to reduce Respiratory syncytial virus induced cytopathogenicity by 50%; type: functional; settings: human respiratory syncytial virus
# Sindbis virus [23] = assay: Minimum inhibitory concentration required to reduce Sindbis virus induced cytopathogenicity by 50%; type: functional
# [24] = system: Vesicular stomatitis virus; assay: Minimum inhibitory concentration required to reduce Vesicular stomatitis virus induced cytopathogenicity by 50%; type: functional
# Human alphaherpesvirus 3 [25] = assay: Minimum inhibitory concentration required to reduce VZV induced cytopathogenicity by 50%; type: functional
# [26] = system: Human immunodeficiency virus 2; assay: Minimum inhibitory concentration required to reduce HIV-2 induced cytopathogenicity by 50%; type: functional
# Human alphaherpesvirus 1 [27] = assay: Minimum inhibitory concentration required to reduce HSV-1(KOS) induced cytopathogenicity by 50%; type: functional
Compound,Cytotoxicity (Coxsackievirus B4 [1]),Cytotoxicity (Human betaherpesvirus 5 [2]),Cytotoxicity [3],Cytotoxicity (Human alphaherpesvirus 2 [4]),Cytotoxicity [5],Cytotoxicity (Human alphaherpesvirus 1 [6]),Cytotoxicity (Human respirovirus 3 [7]),Cytotoxicity (Punta Toro virus [8]),Cytotoxicity [9],Cytotoxicity [10],Cytotoxicity (Sindbis virus [11]),Cytotoxicity (Human alphaherpesvirus 3 [12]),Cytotoxicity [13],Cytotoxicity (Vaccinia virus),MIC (Coxsackievirus B4 [14]),MIC [15],MIC (Human betaherpesvirus 5 [16]),MIC (Human alphaherpesvirus 2 [18]),MIC (Human respirovirus 3 [19]),MIC (Punta Toro virus [20]),also measured
O=c1[nH]c(=O)n(C2S[C@@H](CO)[C@H](O)[C@H]2O)cc1Br (stereo partly drawn),inactive,inactive,inactive,inactive,inactive,inactive,inactive,inactive,inactive,inactive,inactive,inactive,inactive,inactive,–,–,–,–,–,–,–
Nc1ccn(C2S[C@@H](CO)[C@H](O)[C@H]2O)c(=O)n1 (stereo partly drawn),–,–,–,–,–,–,–,–,–,–,–,–,–,–,400 µg/mL,400 µg/mL,400 µg/mL,400 µg/mL,400 µg/mL,400 µg/mL,MIC (Human alphaherpesvirus 1 [17]): 400 µg/mL; MIC [21]: 400 µg/mL; MIC [22]: 400 µg/mL; MIC (Sindbis virus [23]): 400 µg/mL; MIC [24]: 400 µg/mL; MIC (Human alphaherpesvirus 3 [25]): 400 µg/mL; MIC [26]: 400 µg/mL
O=c1[nH]c(=O)n(C2S[C@@H](CO)[C@H](O)[C@H]2O)cc1F (stereo partly drawn),inactive,inactive,inactive,inactive,inactive,inactive,inactive,inactive,inactive,inactive,inactive,inactive,inactive,inactive,–,–,–,–,–,–,–
Cc1cn([C@@H]2S[C@@H](CO)[C@H](O)[C@H]2O)c(=O)[nH]c1=O,–,–,–,–,–,–,–,–,–,–,–,–,–,–,400 µg/mL,400 µg/mL,400 µg/mL,400 µg/mL,400 µg/mL,400 µg/mL,MIC (Human alphaherpesvirus 1 [27]): 48 µg/mL; MIC [21]: 400 µg/mL; MIC [22]: 400 µg/mL; MIC (Sindbis virus [23]): 400 µg/mL; MIC [24]: 400 µg/mL; MIC (Human alphaherpesvirus 3 [25]): 400 µg/mL; MIC [26]: 400 µg/mL
O=c1ccn([C@@H]2S[C@@H](CO)[C@H](O)[C@H]2O)c(=O)[nH]1,–,–,–,–,–,–,–,–,–,–,–,–,–,–,400 µg/mL,400 µg/mL,400 µg/mL,400 µg/mL,400 µg/mL,400 µg/mL,MIC (Human alphaherpesvirus 1 [17]): 400 µg/mL; MIC [21]: 400 µg/mL; MIC [22]: 400 µg/mL; MIC (Sindbis virus [23]): 400 µg/mL; MIC [24]: 400 µg/mL; MIC (Human alphaherpesvirus 3 [25]): 400 µg/mL; MIC [26]: 400 µg/mL
O=c1ccn([C@H]2S[C@@H](CO)[C@H](O)[C@H]2O)c(=O)[nH]1,–,–,–,–,–,–,–,–,–,–,–,–,–,–,400 µg/mL,400 µg/mL,400 µg/mL,400 µg/mL,400 µg/mL,400 µg/mL,MIC (Human alphaherpesvirus 1 [27]): 48 µg/mL; MIC [21]: 400 µg/mL; MIC [22]: 400 µg/mL; MIC (Sindbis virus [23]): 400 µg/mL; MIC [24]: 400 µg/mL; MIC (Human alphaherpesvirus 3 [25]): 400 µg/mL; MIC [26]: 400 µg/mL
O=c1[nH]c(=O)n(C2S[C@@H](CO)[C@H](O)[C@H]2O)cc1Cl (stereo partly drawn),inactive,inactive,inactive,inactive,inactive,inactive,inactive,inactive,inactive,inactive,inactive,inactive,inactive,inactive,–,–,–,–,–,–,–
CC(=O)OC1S[C@@H](COCc2ccccc2)[C@H](OCc2ccccc2)[C@H]1OCc1ccccc1 (stereo partly drawn),inactive,inactive,inactive,inactive,inactive,inactive,inactive,inactive,inactive,inactive,inactive,inactive,inactive,inactive,–,–,–,–,–,–,–
